Test results from patent publication US20100323975A1, “THERAPEUTIC AGENT FOR CEREBRAL ISCHEMIC INJURY” (OTSUKA PHARMACEUTICAL FACTORY, INC., priority 2007, published 2010).
Entries after “also recorded” stand apart in the source; their conditions may differ. Values belong to the compound of their own block, whether it stands above or below them. Peptide text beside a SMILES is read from it.

Experiments:
[1] = test system: model of middle cerebral artery occlusion and subsequent reperfusion (cerebral ischemic injury); test: Infarction rate in model of middle cerebral artery occlusion and subsequent reperfusion (Test Example 1); assay type: in vivo, Wistar male rats; details: for Infarction rate (mean value): 90 min occlusion, day after administration, control 49%
Text: Approximately 9-week-old Wistar male rats were used. The method of Koizumi et al. (Nou-socchu (Cerebral Apoplexy), Vol. 8, pp. 1-8, 1986) was applied to the rats under halothane anesthesia, so as to produce models of middle cerebral artery occlusion and subsequent reperfusion. Specifically, each rat was fixed under natural aspiration conditions under anesthesia with gas (initial anesthesia: performed in room air containing 3% halothane; continuous anesthesia: performed in room air containing 1% halothane), and the neck of the rat was then subjected to median incision. Subsequently, the left common carotid and external carotid artery was exfoliated from surrounding connective tissues, and it was then ligated with a ligature. After that, the internal carotid artery was exfoliated from surrounding connective tissues, and it was then ligated with a ligature. Further, using scissors, a hole was made on a site close to the branch point between the left external carotid artery and the internal carotid artery, and a silicon-coated portion of a nylon plug was then inserted into the internal carotid artery at a depth of 15 to 16 mm. Thereby, the tip of the inserted nylon plug exceeded the middle cerebral artery portion and reached the anterior cerebral artery, so that the inlet of the middle cerebral artery was occluded with the silicon-coated portion of the plug. […]
On the day after the administration of the agent, a test animal was anesthetized with ether, and the brain was then excised. […] A slice of brain section was placed, with a surface to be measured down, into each well of a 12-well plate, which had been filled with a 2% TTC solution prepared by dissolving 2,3,5-triphenyltetrazolium chloride (TTC) in a phosphate buffered saline. […] Thus, the area of an infarct on the measurement surface of each brain section (the site in which brain tissue was considered to be necrosed) was measured, and the obtained value was then multiplied by the thickness of the brain section, so as to obtain the volume of an infarct in each brain section. […]

[2] = L-histidine concentration in blood after intravenous administration (Test Example 2)
Description: (§1) 7- to 9-week-old Wistar male rats were divided into the following 8 administration groups. The number of rats in each group was set at 4. […]
The therapeutic agent for cerebral ischemic injury obtained in Production Example 2 was diluted by a factor of 2, and the thus diluted solution was administered into the caudal vein of each rat at a rate of 60 mL/kg/hr for 10 minutes. […]
(§2) L-histidine was added to water for injection purpose, and acetic acid was further added thereto, so as to dissolve L-histidine in the solution. The obtained solution was adjusted to pH 6.0 with a sodium hydroxide aqueous solution. The obtained injection solution (L-histidine concentration: 10% (W/V)) was administered into the caudal vein of each rat at a rate of 60 mL/kg/hr for 10 minutes.
as §2, with “citric” for “acetic”, “minutes. […]” for “minutes.”
(§3) After administration of the agent, blood was collected from each rat at regular time intervals, and the concentration of L-histidine (monomer) in blood was then measured using a high speed amino acid analyzer L-8800A (manufactured by Hitachi High-Technologies Corporation). […] In addition, the body temperature, blood pressure, and cardiac rate of each test animal were measured during the period from before administration of the agent until after the administration of the agent, and at the same time, the appearance of each test animal was observed, so as to examine the presence or absence of side effects caused by administration of the agent. The L-histidine concentration in blood was measured 15 minutes after the administration of the agent, and the presence or absence of side effects caused by such administration of the agent was examined.

Wistar male rats = test: Identification of side effects after intravenous administration (Test Example 2); details: for Cessation of breathing, number of cases: 4 rats per group
Description: as §1
L-histidine hydrochloride was dissolved in water for injection purpose, and the obtained solution was then adjusted to pH 6.0 with a sodium hydroxide aqueous solution. The obtained injection solution (L-histidine concentration: 10% (W/V)) was administered into the caudal vein of each rat at a rate of 60 mL/kg/hr for 10 minutes.
as §2
as §2, with “citric” for “acetic”
β-alanyl-L-histidine was added to water for injection purpose, and the obtained solution was then adjusted to pH 7 with hydrochloric acid. The obtained injection solution (L-histidine concentration: 10% (W/V)) was administered into the caudal vein of each rat at a rate of 60 mL/kg/hr for 10 minutes. […]
as §3

[3] = Solubility in water at 25° C.; assay type: physicochemical
[4] = Time course of L-histidine concentration in blood after administration of different dipeptides (Test Example 4); assay type: in vivo, Wister male rats
Description: 7- to 8-week-old Wister male rats were divided into the following 3 administration groups.
(§4) 1.00 g of L-alanyl-L-histidine (manufactured by Bachem) was dissolved in water for injection purpose to prepare 13.70 mL (total amount) of solution. This solution was subjected to sterilization filtration, and it was then poured into syringes (10 mL each per syringe), so as to produce a therapeutic agent for cerebral ischemic injury having a dosage form as an injection. The concentration of L-alanyl-L-histidine in this therapeutic agent for cerebral ischemic injury was 0.32 mol/L (L-histidine concentration: 5% (W/V)).
as §4, with “L-histidyl-L-glycine” for “L-alanyl-L-histidine”, “14.60” for “13.70”
as §4, with “L-histidyl-L-glutamic acid” for “L-alanyl-L-histidine”, “10.90” for “13.70”

[5] = male, Wistar, rat, in vivo, 15 min
[6] = male, Wistar, rat, in vivo, 0 min
[7] = male, Wistar, rat, in vivo, 30 min
[8] = male, Wistar, rat, in vivo, 60 min
[9] = male, Wistar, rat, in vivo, 120 min
[10] = male, Wistar, rat, in vivo, -10 min
[11] = 5th administration group: dissolved with acetic acid, pH 6.0, L-histidine 10% (W/V), caudal vein 60 mL/kg/hr for 10 minutes
[12] = 6th administration group: dissolved with citric acid, pH 6.0, L-histidine 10% (W/V), caudal vein 60 mL/kg/hr for 10 minutes

Compound: CC1=NN(c2ccccc2)C(=O)C1 [Edaravone, 3-methyl-1-phenyl-2-pyrazoline-5-one]
- Infarction rate (mean value) ([1]; Comparison group: bolus injection 3 mg/kg immediately after and 30 minutes after reperfusion): 38%

Compound: C[C@H](N)C(=O)N[C@@H](Cc1c[nH]cn1)C(=O)O [L-alanyl-L-histidine] (H-Ala-His-OH)
- Cerebral ischemic injury during cerebral ischemia-reperfusion compared with control group and comparison group ([1]; Experiment group, Production Example 1 injection): remarkably suppressed
- Infarction rate (mean value) ([1]; Experiment group: Production Example 1 injection (1.29 mol/L), caudal vein 60 mL/kg/hr for 10 minutes, immediately after and 6 hours after reperfusion): 20%
- Factor of increase of L-histidine concentration in blood when the concentration administered was increased by a factor of 2 [2, 5]: 3-3.5
- Side effects (Wistar male rats; rat, in vivo): None
- solubility [3]: ≥ 3500 mM
- L-histidine concentration in blood [4, 6]: 7588.27 nmol/mL
- L-histidine concentration in blood immediately after completion of administration, relative to second administration group (L-histidyl-L-glycine) [4, 6]: approximately 2 times
- L-histidine concentration in blood immediately after completion of administration, relative to third administration group (L-histidyl-L-glutamic acid) [4, 6]: approximately 5 times
- L-histidine concentration in blood [4, 5]: 3802.80 nmol/mL
- L-histidine concentration in blood [4, 7]: 2198.93 nmol/mL
- L-histidine concentration in blood [4, 8]: 770.17 nmol/mL
- L-histidine concentration in blood [4, 9]: 268.77 nmol/mL
- L-histidine concentration in blood [4, 10]: 76.67 nmol/mL

Compound: Cl.N[C@@H](Cc1c[nH]cn1)C(=O)O [L-histidine hydrochloride]
- Side effects (Wistar male rats; 4th (pH 6.0) / 7th (pH 7) administration group: L-histidine concentration 10% (W/V), caudal vein 60 mL/kg/hr for 10 minutes, hydrochloride): Decrease in blood pressure; also recorded: Cessation of breathing
- Cessation of breathing, number of cases (Wistar male rats; 4th group: during administration of agent, 7th group: immediately after administration, L-histidine 10% (W/V)): agent in 2 cases

Compound: N[C@@H](Cc1c[nH]cn1)C(=O)O [L-histidine]
- L-histidine concentration in blood (mean value) [2, 11]: Not be measurable
- L-histidine concentration in blood (mean value) [2, 12]: Not be measurable
- Side effects (Wistar male rats; [11]): Decrease in blood pressure; also recorded: Cessation of breathing
- Cessation of breathing, number of cases (Wistar male rats; 5th group (acetic acid, pH 6.0, 10% (W/V)): immediately after administration of agent): administration of agent in 4 cases
- Side effects (Wistar male rats; [12]): Decrease in blood pressure; also recorded: Cessation of breathing
- Cessation of breathing, number of cases (Wistar male rats; 6th group (citric acid, pH 6.0, 10% (W/V)): during administration of agent): agent in 4 cases

The next lines start with results.

- L-histidine concentration in blood [4, 6]: 1546.15 nmol/mL
- L-histidine concentration in blood [4, 5]: 2090.10 nmol/mL
- L-histidine concentration in blood [4, 7]: 1827.15 nmol/mL
- L-histidine concentration in blood [4, 8]: 926.80 nmol/mL
- L-histidine concentration in blood [4, 9]: 233.20 nmol/mL
- L-histidine concentration in blood [4, 10]: 78.40 nmol/mL
Compound: N[C@@H](Cc1c[nH]cn1)C(=O)N[C@@H](CCC(=O)O)C(=O)O [L-histidyl-L-glutamic acid] (H-His-Glu-OH)

- L-histidine concentration in blood ([4]; 0 min after administration, 0.32 mol/L, caudal vein 60 mL/kg/hr for 10 minutes): 3995.57 nmol/mL
- L-histidine concentration in blood ([4]; 15 min after administration, 0.32 mol/L, caudal vein 60 mL/kg/hr for 10 minutes): 3798.87 nmol/mL
- L-histidine concentration in blood ([4]; 30 min after administration, 0.32 mol/L, caudal vein 60 mL/kg/hr for 10 minutes): 2019.47 nmol/mL
- L-histidine concentration in blood ([4]; 60 min after administration, 0.32 mol/L, caudal vein 60 mL/kg/hr for 10 minutes): 833.93 nmol/mL
- L-histidine concentration in blood ([4]; 120 min after administration, 0.32 mol/L, caudal vein 60 mL/kg/hr for 10 minutes): 244.03 nmol/mL
- L-histidine concentration in blood ([4]; −10 min (before administration), 0.32 mol/L, caudal vein 60 mL/kg/hr for 10 minutes): 74.73 nmol/mL
Compound: N[C@@H](Cc1cnc[nH]1)C(=O)NCC(=O)O [L-histidyl-L-glycine] (H-His-Gly-OH)

- L-histidine concentration in blood (mean value) ([2]; male, Wistar, rat, in vivo, 15 min, pH 7): 0.25 mM
Compound: CC(=O)N[C@@H](Cc1c[nH]cn1)C(=O)O [N-acetyl-L-histidine]
- Side effects (Wistar male rats; rat, in vivo, pH 7): None

- L-histidine concentration in blood (mean value) [2, 5]: 0.30 mM
Compound: NCCC(=O)N[C@@H](Cc1cnc[nH]1)C(=O)O [β-alanyl-L-histidine]
- Side effects (Wistar male rats; rat, in vivo): Cessation of breathing
